PMC11882969 (Nature Communications, 2025)
“And” between values parts separate entries of the source, which are not always exact repeats. Equal values may be shown once. Read-outs that look alike come from different tables or passages of the source.

Key:
hCB1 = hCB1 (Homo sapiens, UniProt P21554); experiment: bioSensAll ebBRET signaling profiling, hCB1; type: cell-based; set-up: host or cells: HEK293SL cells, transient PEI transfection; details: for Gi1 hCB1 response: Gi1 biosensor; for Gi1 hCB1 / GoB hCB1: single replicate values, FigS6a; for Emax [95% CI]: normalized to CP-55,940; for EC50: read-out: EC50 [95% CI]
Sequence of hCB1 (P21554 whole entry): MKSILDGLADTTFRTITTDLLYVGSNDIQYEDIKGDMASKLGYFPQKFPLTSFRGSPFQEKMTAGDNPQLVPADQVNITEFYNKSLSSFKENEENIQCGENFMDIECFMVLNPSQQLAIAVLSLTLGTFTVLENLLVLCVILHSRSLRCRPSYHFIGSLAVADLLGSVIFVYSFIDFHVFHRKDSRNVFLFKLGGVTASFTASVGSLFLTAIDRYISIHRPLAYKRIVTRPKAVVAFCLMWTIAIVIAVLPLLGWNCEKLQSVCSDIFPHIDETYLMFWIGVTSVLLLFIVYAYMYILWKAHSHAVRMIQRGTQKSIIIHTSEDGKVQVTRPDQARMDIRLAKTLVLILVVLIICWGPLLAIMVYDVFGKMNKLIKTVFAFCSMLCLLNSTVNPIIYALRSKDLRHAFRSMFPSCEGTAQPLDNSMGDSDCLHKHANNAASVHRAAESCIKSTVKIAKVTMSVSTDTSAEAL

CB1 (rCB1) = CB1 (rCB1) (Rattus norvegicus, UniProt P20272); experiment: Radioligand competition binding, [3H]-CP-55,940, rat brain membranes
Sequence of CB1 (rCB1) (P20272 whole entry): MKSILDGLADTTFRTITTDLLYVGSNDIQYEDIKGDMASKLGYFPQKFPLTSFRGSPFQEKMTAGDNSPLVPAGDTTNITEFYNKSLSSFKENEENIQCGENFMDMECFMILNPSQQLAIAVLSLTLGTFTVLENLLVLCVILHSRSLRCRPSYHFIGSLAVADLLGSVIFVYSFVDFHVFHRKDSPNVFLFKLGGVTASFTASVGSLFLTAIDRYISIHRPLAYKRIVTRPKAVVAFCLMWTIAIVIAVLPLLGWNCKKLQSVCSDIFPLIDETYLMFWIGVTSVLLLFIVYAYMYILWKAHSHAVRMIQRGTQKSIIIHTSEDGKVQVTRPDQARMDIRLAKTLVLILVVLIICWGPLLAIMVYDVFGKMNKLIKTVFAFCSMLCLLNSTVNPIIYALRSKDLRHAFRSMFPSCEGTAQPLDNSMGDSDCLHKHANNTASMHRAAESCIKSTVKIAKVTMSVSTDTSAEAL

hCB2 = hCB2 (Homo sapiens, UniProt P34972); experiment: Tango β-arrestin-2 recruitment, HTLA cells, CB2R; type: cell-based; set-up: expressed in transfected cells; host or cells: HEK293 cells stably expressing human CB2R (Laboratory of Ken Mackie); details: hCB2
Sequence of hCB2 (P34972 whole entry): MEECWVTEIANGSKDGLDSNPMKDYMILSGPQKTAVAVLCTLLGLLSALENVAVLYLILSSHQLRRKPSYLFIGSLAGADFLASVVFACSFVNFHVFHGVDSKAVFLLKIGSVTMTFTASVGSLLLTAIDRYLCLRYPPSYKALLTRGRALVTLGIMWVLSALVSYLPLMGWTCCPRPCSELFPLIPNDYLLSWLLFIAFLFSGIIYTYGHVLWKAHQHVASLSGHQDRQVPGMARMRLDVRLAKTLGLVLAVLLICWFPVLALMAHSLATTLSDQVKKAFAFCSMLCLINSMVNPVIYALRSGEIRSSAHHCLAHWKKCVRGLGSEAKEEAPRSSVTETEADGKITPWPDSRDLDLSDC
Method: The Tango β-arrestin-2 recruitment assays were performed as described[83]. In brief, HTLA cells (a gift from the laboratory of R. Axel) were transiently transfected with human CB1R or CB2R Tango DNA construct overnight in DMEM supplemented with 10 % FBS, 100 µg ml−1 streptomycin and 100 U ml−1 penicillin. The transfected cells were then plated into poly-L-lysine-coated 384-well white clear-bottom cell culture plates in DMEM containing 1% dialysed FBS at a density of 10,000–15,000 cells per well. After incubation for 6 h, the plates were added with drug solutions prepared in DMEM containing 1% dialysed FBS for overnight incubation. On the day of assay, medium and drug solutions were removed and 20 µl per well of BrightGlo reagent (Promega) was added. The plates were further incubated for 20 min at room temperature and counted using the Wallac TriLux Microbeta counter (PerkinElmer). The results were analysed using GraphPad Prism 9. Each experiment was performed in triplicate and functional IC50 values were determined from the mean of three independent experiments.

`COC(=O)[C@@H]1[C@@H]2CCC[C@@H]2CN1C(=O)c1cc(C)n(-c2cccc(C(F)(F)F)c2)n1` [‘6439] was tested. Which “Gi1 hCB1 response” value (hCB1; Log [Compound] (M) -4.22186) did it give?
Its value is 151.018.

And the “Gi1 hCB1 response” value (hCB1; Log [Compound] (M) -4.63927)?
Its value is 115.678.

And the “Gi1 hCB1 response” value (hCB1; Log [Compound] (M) -5.05788)?
The value was 127.496.

What about the “Gi1 hCB1 response” value (hCB1; Log [Compound] (M) -5.47381) of the same compound?
The value was 106.412.

What about the “Gi1 hCB1 response” value (hCB1; Log [Compound] (M) -5.89285) of the same compound?
Its value is 85.038.

What about the “Gi1 hCB1 response” value (hCB1; Log [Compound] (M) -6.31878) of the same compound?
Its value is 82.8446.

What about the “Gi1 hCB1 response” value (hCB1; Log [Compound] (M) -6.72585) of the same compound?
The value was 60.217.

And the “Gi1 hCB1 response” value (hCB1; Log [Compound] (M) -7.14267)?
Its value is 58.225.

And the “Gi1 hCB1 response” value (hCB1; Log [Compound] (M) -7.55284)?
The value was 19.617.

What about the “Gi1 hCB1 response” value (hCB1; Log [Compound] (M) -8) of the same compound?
Its value is 16.8865.

What about the “Gi1 hCB1 response” value (hCB1; Log [Compound] (M) -8.22186) of the same compound?
The value was 14.8945.

And the “Gi1 hCB1 response” value (hCB1; Log [Compound] (M) -8.39794)?
The value was 2.361.

What about the “Gi1 hCB1 response” value (hCB1; Log [Compound] (M) -8.68787) of the same compound?
The value was 6.703.

What about the “Gi1 hCB1 response” value (hCB1; Log [Compound] (M) -9.15521) of the same compound?
Its value is 0.8614.

And the “Gi1 hCB1 response” value (hCB1; Log [Compound] (M) -9.61989)?
Its value is -7.912.

And the “Gi1 hCB1 response” value (hCB1; Log [Compound] (M) -10.0969)?
The value was -33.897.

And the “Gi1 hCB1 response” value (hCB1; Log [Compound] (M) -10.5529)?
Its value is -6.905.

And the “Gi1 hCB1 response” value (hCB1; Log [Compound] (M) -11.0177)?
The value was 0.7271.

What about the “Gi1 hCB1 response” value (hCB1; Log [Compound] (M) -11.4949) of the same compound?
Its value is -12.7913.

What about the “Gi1 hCB1 response” value (hCB1; Log [Compound] (M) -11.9208) of the same compound?
The value was -11.6498.

What about the “Gi1 hCB1 response” value (hCB1; Log [Compound] (M) -12.3979) of the same compound?
Its value is -8.158.

What about the “Gi1 hCB1 response” value (hCB1; Log [Compound] (M) -12.8861) of the same compound?
Its value is -13.8656.

What about the “Gi1 hCB1 response” value (hCB1; Log [Compound] (M) -13, individual replicate values) of the same compound?
The value was 6.815 and -3.369.

What about the “Gi1 hCB1” value (hCB1; Log [Compound] (M) -4.22186) of the same compound?
The value was 102.871.

What about the “GoB hCB1” value (hCB1; Log [Compound] (M) -4.22186) of the same compound?
Its value is 99.959.

What about the “Gi1 hCB1” value (hCB1; Log [Compound] (M) -4.63927) of the same compound?
Its value is 91.1085.

And the “GoB hCB1” value (hCB1; Log [Compound] (M) -4.63927)?
Its value is 101.488.

And the “Gi1 hCB1” value (hCB1; Log [Compound] (M) -5.05788)?
Its value is 91.2935.

What about the “GoB hCB1” value (hCB1; Log [Compound] (M) -5.05788) of the same compound?
The value was 96.0026.

And the “Gi1 hCB1” value (hCB1; Log [Compound] (M) -5.47381)?
Its value is 93.4364.

What about the “GoB hCB1” value (hCB1; Log [Compound] (M) -5.47381) of the same compound?
The value was 100.139.

What about the “Gi1 hCB1” value (hCB1; Log [Compound] (M) -5.89285) of the same compound?
Its value is 89.3202.

And the “GoB hCB1” value (hCB1; Log [Compound] (M) -5.89285)?
The value was 94.2762.

And the “Gi1 hCB1” value (hCB1; Log [Compound] (M) -6.31878)?
The value was 88.4414.

What about the “GoB hCB1” value (hCB1; Log [Compound] (M) -6.31878) of the same compound?
Its value is 89.4207.

What about the “Gi1 hCB1” value (hCB1; Log [Compound] (M) -6.72585) of the same compound?
The value was 73.3178.

And the “GoB hCB1” value (hCB1; Log [Compound] (M) -6.72585)?
The value was 75.088.

And the “Gi1 hCB1” value (hCB1; Log [Compound] (M) -7.14267)?
Its value is 49.9.

And the “GoB hCB1” value (hCB1; Log [Compound] (M) -7.14267)?
Its value is 54.2273.

And the “Gi1 hCB1” value (hCB1; Log [Compound] (M) -7.55284)?
Its value is 26.2355.

What about the “GoB hCB1” value (hCB1; Log [Compound] (M) -7.55284) of the same compound?
Its value is 30.9029.

And the “Gi1 hCB1” value (hCB1; Log [Compound] (M) -8)?
The value was 8.645.

What about the “GoB hCB1” value (hCB1; Log [Compound] (M) -8) of the same compound?
The value was 13.9266.

And the “Gi1 hCB1” value (hCB1; Log [Compound] (M) -8.22186)?
Its value is 5.331.

And the “GoB hCB1” value (hCB1; Log [Compound] (M) -8.22186)?
The value was 0.7628.

And the “Gi1 hCB1” value (hCB1; Log [Compound] (M) -8.39794)?
The value was 4.128.

What about the “GoB hCB1” value (hCB1; Log [Compound] (M) -8.39794) of the same compound?
Its value is 8.262.

And the “Gi1 hCB1” value (hCB1; Log [Compound] (M) -8.68787)?
Its value is 4.853.

What about the “GoB hCB1” value (hCB1; Log [Compound] (M) -8.68787) of the same compound?
Its value is -0.2442.

What about the “Gi1 hCB1” value (hCB1; Log [Compound] (M) -9.15521) of the same compound?
Its value is 1.029.

What about the “GoB hCB1” value (hCB1; Log [Compound] (M) -9.15521) of the same compound?
The value was -1.989.

And the “Gi1 hCB1” value (hCB1; Log [Compound] (M) -9.61989)?
Its value is 0.2894.

What about the “GoB hCB1” value (hCB1; Log [Compound] (M) -9.61989) of the same compound?
Its value is -0.46.

What about the “Gi1 hCB1” value (hCB1; Log [Compound] (M) -10.0969) of the same compound?
Its value is -1.6068.

And the “GoB hCB1” value (hCB1; Log [Compound] (M) -10.0969)?
The value was -4.219.

And the “Gi1 hCB1” value (hCB1; Log [Compound] (M) -10.5529)?
Its value is 0.5669.

And the “GoB hCB1” value (hCB1; Log [Compound] (M) -10.5529)?
Its value is -0.6758.

What about the “Gi1 hCB1” value (hCB1; Log [Compound] (M) -11.0177) of the same compound?
The value was -0.651.

And the “GoB hCB1” value (hCB1; Log [Compound] (M) -11.0177)?
The value was -1.557.

And the “Gi1 hCB1” value (hCB1; Log [Compound] (M) -11.4949)?
Its value is -0.6201.

What about the “GoB hCB1” value (hCB1; Log [Compound] (M) -11.4949) of the same compound?
Its value is 1.626.

And the “Gi1 hCB1” value (hCB1; Log [Compound] (M) -11.9208)?
The value was -0.3581.

And the “GoB hCB1” value (hCB1; Log [Compound] (M) -11.9208)?
Its value is -0.04642.

And the “Gi1 hCB1” value (hCB1; Log [Compound] (M) -12.3979)?
Its value is 0.9369.

And the “GoB hCB1” value (hCB1; Log [Compound] (M) -12.3979)?
Its value is 0.02551.

What about the “Gi1 hCB1” value (hCB1; Log [Compound] (M) -12.8861) of the same compound?
Its value is 1.631.

What about the “GoB hCB1” value (hCB1; Log [Compound] (M) -12.8861) of the same compound?
The value was 1.572.

What about the “Gi1 hCB1” value (hCB1; Log [Compound] (M) -13) of the same compound?
Its value is -0.9439 and 1.0911.

What about the “GoB hCB1” value (hCB1; Log [Compound] (M) -13) of the same compound?
Its value is -0.55 and -0.478.

And the “pEC50 [95% CI]” value (hCB1; hCB1 Gi1)?
Its value is 7.2 [7.1 – 7.2].

And the “Emax [95% CI]” value (hCB1; hCB1 Gi1)?
Its value is 95 [93 – 96].

What about the “pEC50 [95% CI]” value (hCB1; hCB1 GoB) of the same compound?
The value was 7.2 [7.2 – 7.3].

What about the “Emax [95% CI]” value (hCB1; hCB1 GoB) of the same compound?
Its value is 100 [99 – 101].

What about the “pEC50 [95% CI]” value (hCB1; hCB1 Gz) of the same compound?
The value was 6.5 [5.9 – 7.0].

What about the “Emax [95% CI]” value (hCB1; hCB1 Gz) of the same compound?
The value was 162 [125 –199].

What about the EC50 (hCB1; hCB1 Gi1) of the same compound?
The EC50 was 65.5 nM.

What about the EC50 (hCB1; hCB1 GoB) of the same compound?
Its EC50 is 60.9 nM.

And the EC50 (hCB1; hCB1 Gz)?
Its EC50 is 339 nM.

And the “pKi [95% CI]” value (CB1 (rCB1); rCB1)?
The value was 6.6 [6.4 – 6.8].

And the Ki (CB1 (rCB1); read-out: Ki [95% CI], rCB1, [3H]-CP-55,940)?
Its Ki is 251 nM.

And the “Tango ß-arrestin recruitment Emax” value (hCB2)?
The value was 14% [13 – 15].

What about the “Tango ß-arrestin recruitment pEC50” value (hCB2) of the same compound?
Its value is 6.5 [6.4 – 6.6].

What about the EC50 (hCB2; read-out: Tango ß-arrestin recruitment EC50) of the same compound?
Its EC50 is 338 nM.
